According to ChEMBL document CHEMBL1201862, “PubChem BioAssay data set” (2004):
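Exposure lasted 48 hours, with cells grown in 96-well plates and compounds tested at five concentrations. Abbreviation: GI50, concentration required for 50% inhibition of growth.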 Calls of active or inactive are those of the source. No stated cut-off is given here; in the data, active = GI50 up to about 1.1 µM and inactive = higher.

What was measured:
Experiment in all cases: growth of human tumour cells (NCI), 48 h
HCT-116 = system: HCT-116
SN12C = system: SN12C
UO-31 = system: UO-31
KM12 = system: KM12
ACHN = system: ACHN
OVCAR-5 = system: OVCAR-5
SR = system: SR
HCC 2998 = system: HCC 2998
SK-MEL-28 = system: SK-MEL-28
LOX IMVI = system: LOX IMVI
U-251 = system: U-251
HCT-15 = system: HCT-15
M14 = system: M14
SK-MEL-2 = system: SK-MEL-2
T47D = system: T47D
NCI-H460 = system: NCI-H460
COLO 205 = system: COLO 205
SF-295 = system: SF-295
SW-620 = system: SW-620

Row | Structure (SMILES) | GI50 (HCT-116) | GI50 (SN12C) | GI50 (UO-31) | GI50 (KM12) | GI50 (ACHN) | GI50 (OVCAR-5) | GI50 (SR) | GI50 (HCC 2998) | GI50 (SK-MEL-28) | GI50 (LOX IMVI) | GI50 (U-251) | GI50 (HCT-15) [µM] | GI50 (M14) | GI50 (SK-MEL-2) | GI50 (T47D) | GI50 (NCI-H460) | GI50 (COLO 205) | GI50 (SF-295) | GI50 (SW-620)
1 | CC(C)OC(=O)c1ccc(NCc2cc(O)ccc2O)cc1 | 5.81 µM (inactive) | 1.71 µM (inactive) | 1.51 µM (inactive) | 3.38 µM (inactive) | 3.6 µM (inactive) | 10.4 µM (inactive) | 1.06 µM (active) | 11.1 µM (inactive) | 8 µM (inactive) | 3.4 µM (inactive) | 4.32 µM (inactive) | 2.69 | 6.84 µM (inactive) | 10.9 µM (inactive) | 2.18 µM (inactive) | 11.1 µM (inactive) | 3.06 µM (inactive) | 6.3 µM (inactive) | 4.86 µM (inactive)
2 | Cc1cc2c(cc1Cl)Sc1nnc(Nc3ccccc3)n1S2(=O)=O | 9.64 µM (inactive) | – | 13.4 µM (inactive) | 12 µM (inactive) | 12.2 µM (inactive) | 31.9 µM (inactive) | 2.59 µM (inactive) | 3.96 µM (inactive) | 15.8 µM (inactive) | 3.85 µM (inactive) | 3.75 µM (inactive) | 5.07 | 14.1 µM (inactive) | 4.84 µM (inactive) | 7.78 µM (inactive) | 8.36 µM (inactive) | – | 13.3 µM (inactive) | 7.87 µM (inactive)
3 | CCOC(=O)C(=O)C(/C(=N/N(C)C)C(=O)Nc1ccc(C)cc1C)c1nc2ccccc2nc1O (configuration not stated) | > 100 µM (inactive) | > 100 µM (inactive) | > 100 µM (inactive) | > 100 µM (inactive) | > 100 µM (inactive) | > 100 µM (inactive) | > 100 µM (inactive) | > 100 µM (inactive) | > 100 µM (inactive) | > 100 µM (inactive) | > 100 µM (inactive) | > 100 | > 100 µM (inactive) | > 100 µM (inactive) | > 100 µM (inactive) | > 100 µM (inactive) | – | > 100 µM (inactive) | > 100 µM (inactive)
4 | COc1ccccc1/C=C1\S/C(=N/Nc2nc(C)c(C(C)=O)s2)NC1=O | 43.3 µM (inactive) | 65.9 µM (inactive) | 37.2 µM (inactive) | 38 µM (inactive) | 49.1 µM (inactive) | 83 µM (inactive) | 31 µM (inactive) | 94.6 µM (inactive) | 40.6 µM (inactive) | 43.2 µM (inactive) | 33.7 µM (inactive) | – | 74 µM (inactive) | 64.1 µM (inactive) | 25.6 µM (inactive) | 55.7 µM (inactive) | 22.9 µM (inactive) | 51.5 µM (inactive) | 46.1 µM (inactive)
5 | O=C(O)c1cccc(Nc2c(C(=O)O)cccc2[N+](=O)[O-])c1 | > 100 µM (inactive) | > 100 µM (inactive) | > 100 µM (inactive) | 57.4 µM (inactive) | > 100 µM (inactive) | > 100 µM (inactive) | > 100 µM (inactive) | > 100 µM (inactive) | – | > 100 µM (inactive) | – | > 100 | > 100 µM (inactive) | > 100 µM (inactive) | > 100 µM (inactive) | > 100 µM (inactive) | > 100 µM (inactive) | > 100 µM (inactive) | –
6 | CS(=O)(=O)OCCN(CCOS(C)(=O)=O)c1ccc(/C=N/c2cccc(Cl)c2)cc1 | 64.9 µM (inactive) | 1.4 µM (inactive) | 1.6 µM (inactive) | 13.4 µM (inactive) | 0.181 µM (active) | 2.95 µM (inactive) | 0.0537 µM (active) | 2.7 µM (inactive) | 10.4 µM (inactive) | 1.13 µM (inactive) | 3.72 µM (inactive) | 1.02 | 14.5 µM (inactive) | 23.8 µM (inactive) | 18.2 µM (inactive) | 0.269 µM (active) | 0.811 µM (active) | 1.46 µM (inactive) | 12.8 µM (inactive)
7 | CC(=O)Nc1ccc2c(C)c3c(nc2n1)[nH]c1ccccc13 | 21.6 µM (inactive) | 30.5 µM (inactive) | 24.5 µM (inactive) | 21.9 µM (inactive) | 17.8 µM (inactive) | 51.4 µM (inactive) | 17.6 µM (inactive) | 33 µM (inactive) | – | 16.4 µM (inactive) | 32.4 µM (inactive) | 15.5 | 25.4 µM (inactive) | 22.6 µM (inactive) | 13.3 µM (inactive) | 21.1 µM (inactive) | 17.2 µM (inactive) | 34.3 µM (inactive) | 37.1 µM (inactive)
8 | COc1ccc(C(O)CNC(=O)c2ccccc2)cc1 (configuration not stated) | > 100 µM (inactive) | > 100 µM (inactive) | – | > 100 µM (inactive) | > 100 µM (inactive) | > 100 µM (inactive) | > 100 µM (inactive) | > 100 µM (inactive) | > 100 µM (inactive) | > 100 µM (inactive) | > 100 µM (inactive) | > 100 | > 100 µM (inactive) | > 100 µM (inactive) | > 100 µM (inactive) | > 100 µM (inactive) | > 100 µM (inactive) | > 100 µM (inactive) | > 100 µM (inactive)
9 | O=C1CCC2C(O)c3cc4c(cc3C(c3ccc5c(c3)OCO5)N12)OCO4 (configuration not stated) | > 100 µM (inactive) | 76 µM (inactive) | 59.7 µM (inactive) | > 100 µM (inactive) | > 100 µM (inactive) | > 100 µM (inactive) | > 100 µM (inactive) | > 100 µM (inactive) | > 100 µM (inactive) | > 100 µM (inactive) | 26.1 µM (inactive) | > 100 | > 100 µM (inactive) | > 100 µM (inactive) | > 100 µM (inactive) | > 100 µM (inactive) | > 100 µM (inactive) | 49.2 µM (inactive) | > 100 µM (inactive)
10 | COC(=O)/C=C\C(C#N)(C#N)/N=C/c1ccsc1 | 1.75 µM (inactive) | 5.33 µM (inactive) | 3.03 µM (inactive) | 14.5 µM (inactive) | 1.42 µM (inactive) | 7.24 µM (inactive) | 0.214 µM (active) | 16.1 µM (inactive) | 2.83 µM (inactive) | 2.24 µM (inactive) | 15.8 µM (inactive) | 1.55 | 2.45 µM (inactive) | 16.9 µM (inactive) | 1.86 µM (inactive) | 17.3 µM (inactive) | 1.37 µM (inactive) | 13.3 µM (inactive) | 1.28 µM (inactive)
11 | COc1cc2nn(-c3ccccc3)nc2c2nonc12 | 41 µM (inactive) | > 100 µM (inactive) | > 100 µM (inactive) | > 100 µM (inactive) | > 100 µM (inactive) | > 100 µM (inactive) | > 100 µM (inactive) | > 100 µM (inactive) | > 100 µM (inactive) | 38.8 µM (inactive) | – | > 100 | > 100 µM (inactive) | > 100 µM (inactive) | > 100 µM (inactive) | > 100 µM (inactive) | > 100 µM (inactive) | > 100 µM (inactive) | > 100 µM (inactive)
12 | Nc1ncnc2c1ncn2C1OC(COP(=O)(O)CP(=O)(O)O)C(O)C1O (configuration not stated) | > 100 µM (inactive) | > 100 µM (inactive) | > 100 µM (inactive) | > 100 µM (inactive) | > 100 µM (inactive) | > 100 µM (inactive) | > 100 µM (inactive) | > 100 µM (inactive) | > 100 µM (inactive) | > 100 µM (inactive) | > 100 µM (inactive) | > 100 | > 100 µM (inactive) | > 100 µM (inactive) | > 100 µM (inactive) | – | 94.6 µM (inactive) | > 100 µM (inactive) | > 100 µM (inactive)
13 | CC(C)C[C@H](NC(=O)CCc1ccccc1)B(O)O | 5.87 µM (inactive) | 16.8 µM (inactive) | 15.8 µM (inactive) | 16.7 µM (inactive) | 5.79 µM (inactive) | 13.6 µM (inactive) | 2.72 µM (inactive) | 13.7 µM (inactive) | 11 µM (inactive) | 4.63 µM (inactive) | 31.4 µM (inactive) | 17.3 | 12.1 µM (inactive) | 12.7 µM (inactive) | 18.7 µM (inactive) | 19 µM (inactive) | 12.7 µM (inactive) | 12 µM (inactive) | 4.83 µM (inactive)
14 | COc1cccc(-c2c(C#N)c(N)nc3c2CCS(=O)(=O)c2ccc(C)cc2-3)c1 | > 100 µM (inactive) | > 100 µM (inactive) | > 100 µM (inactive) | > 100 µM (inactive) | > 100 µM (inactive) | > 100 µM (inactive) | 40.6 µM (inactive) | 78.2 µM (inactive) | > 100 µM (inactive) | > 100 µM (inactive) | > 100 µM (inactive) | > 100 | > 100 µM (inactive) | > 100 µM (inactive) | > 100 µM (inactive) | > 100 µM (inactive) | > 100 µM (inactive) | – | > 100 µM (inactive)
15 | O=C1OC(c2ccc(O)c(Cl)c2)(c2ccc(O)c(Cl)c2)c2ccc(Br)c3cccc1c23.O=C1OC(c2ccc(O)c(Cl)c2)(c2ccc(O)c(Cl)c2)c2cccc3c(Br)ccc1c23 | 19.3 µM (inactive) | 15 µM (inactive) | 19.4 µM (inactive) | 24.1 µM (inactive) | – | 20.7 µM (inactive) | 21.2 µM (inactive) | 19.3 µM (inactive) | 20.9 µM (inactive) | 20 µM (inactive) | 20.1 µM (inactive) | 24.8 | 28.8 µM (inactive) | 19.6 µM (inactive) | 2.9 µM (inactive) | 16.4 µM (inactive) | 7.05 µM (inactive) | 18.3 µM (inactive) | 23.9 µM (inactive)
